This note sets out measurements from ChEMBL document CHEMBL1201862, “PubChem BioAssay data set” (2004).

What all share (assay): inhibition of tumour cell growth, NCI panel, 48 h
Test [1] concerns SR.
Test [2] relates to SK-OV-3.
Test [3] has as its system RXF 393.
Test [4] concerns SF-268.
In test [5] the test system is A498.
Test [6] deals with HCT-15.
Test [7] concerns K562.
The test system of test [8] is NCI-H226.
The test system of test [9] is DU-145.
Test [10] deals with M14.
In test [11] the test system is SK-MEL-5.
In test [12] the test system is CCRF-CEM.
In test [13] the test system is LOX IMVI.
In test [14] the test system is SN12C.
Test [15] concerns SK-MEL-2.
For test [16], the system named is SF-295.
Test [17] relates to TK-10.
Test [18] relates to HOP-62.
Test [19] relates to MDA-MB-231.
In test [20] the test system is CAKI-1.

Molecules are shown by their SMILES.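 Cultured in 96-well plates, cells were exposed to test compound for 48 hours across five concentrations. GI50: concentration for 50% inhibition of growth.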 Activity calls are given as the source filed them. Cut-off read from the data, not from the text of the source: active = GI50 up to about 1.1 µM and inactive = higher.

For `O=C1CC(=O)c2c(Cl)sc(Cl)c21`, the GI50 in [1] is 25.6 µM (inactive); in [2] it was > 100 µM (inactive); in test [3] it was 16.1 µM (inactive); in test [4] it was 64.7 µM (inactive); in test [5], > 100 µM (inactive); in [6], 64.4 µM. Moreover, the GI50 is 40.9 µM (inactive) in test [7]; 86.1 µM (inactive) in test [8]; > 100 µM (inactive) in [9]; > 100 µM (inactive) in [10]; > 100 µM (inactive) in [11]; 37.2 µM (inactive) in [12]. Besides, the GI50 is 52.8 µM (inactive) in [13]; > 100 µM (inactive) in [14]; > 100 µM (inactive) in test [15]; > 100 µM (inactive) in [16]; > 100 µM (inactive) in test [17]; > 100 µM (inactive) in test [18]. Also, the GI50 in [19] and in [20] was > 100 µM (inactive) in each case.
As to `COc1ccccc1C1ON=C(c2ccc([N+](=O)[O-])cc2)N1C12CC3CC(CC(C3)C1)C2` (centres undefined), the GI50 in [1] was 29.9 µM (inactive); in test [2] it was > 100 µM (inactive); in test [3], 12.1 µM (inactive); in test [4], > 100 µM (inactive); in [5], > 100 µM (inactive); in test [6], 91.6 µM. Further, the GI50 in test [7] is 36.7 µM (inactive); in test [8], > 100 µM (inactive); in test [9] it was > 100 µM (inactive); in test [10], 84.3 µM (inactive); in [11], 59.6 µM (inactive); in test [12] it was 28.7 µM (inactive). The GI50 in test [13] is > 100 µM (inactive); in test [14], > 100 µM (inactive); in test [15], > 100 µM (inactive); in test [16], 80.2 µM (inactive); in test [17], > 100 µM (inactive); in [18], 20.4 µM (inactive). For the same compound, the GI50 in test [19] and in test [20] was > 100 µM (inactive) each time.
On to `Cc1cc(O)nc(NN2C(Cl)C(=O)C2c2ccccc2O)n1` (centres undefined), for which the GI50 was 0.796 µM (active) in test [1]; 1.44 µM (inactive) in [2]; 3.03 µM (inactive) in test [3]; 1.53 µM (inactive) in [4]; 12.2 µM (inactive) in test [5]; 0.65 µM in [6]. Besides, the GI50 in [7] is 1.08 µM (active); in test [8] it was 2.39 µM (inactive); in [9], 4.06 µM (inactive); in [10], 3.15 µM (inactive); in [11], 2.66 µM (inactive); in test [12], 0.547 µM (active). For the same compound, the GI50 in [13] was 1.02 µM (active); in test [14], 2.7 µM (inactive); in test [15] it was 1.61 µM (inactive); in [16], 2.76 µM (inactive); in test [17], 19.4 µM (inactive); in test [18], 1.76 µM (inactive). For the same compound, the GI50 in test [19] was 4.39 µM (inactive); in [20] it was 1.64 µM (inactive).
Turning to `Cc1ncn(-c2ccccc2O)c1C`, the GI50 was > 100 µM (inactive) in [1]; > 100 µM (inactive) in test [2]; > 100 µM (inactive) in test [3]; > 100 µM (inactive) in test [4]; > 100 µM (inactive) in [5]; above 100 µM in [6]. The GI50 in test [7] is > 100 µM (inactive); in test [8], > 100 µM (inactive); in [9] it was > 100 µM (inactive); in [10], > 100 µM (inactive); in [11] it was 74.8 µM (inactive); in [12], > 100 µM (inactive). The GI50 in [13] was > 100 µM (inactive); in test [14] it was > 100 µM (inactive); in test [15] it was > 100 µM (inactive); in [16], 55.5 µM (inactive); in test [17], > 100 µM (inactive); in test [18] it was > 100 µM (inactive). The GI50 in test [19] and in [20] was > 100 µM (inactive) in each case.
As to `Cc1nc(O)nc2nc3ccc(Cl)cc3c(NCCNCCO)c12`, the GI50 in test [1] was 8.07 µM (inactive); in test [2], 11.4 µM (inactive); in test [3], 14.6 µM (inactive); in [4] it was 10.1 µM (inactive); in [5], 20.3 µM (inactive); in [6], 17.9 µM. Also, the GI50 in test [7] was 8.59 µM (inactive); in test [8], 13.1 µM (inactive); in [9], 16 µM (inactive); in [10], 12.1 µM (inactive); in test [11], 12.3 µM (inactive); in [12], 9.27 µM (inactive). Also, the GI50 is 8.83 µM (inactive) in test [13]; 7.18 µM (inactive) in test [14]; 14.9 µM (inactive) in test [15]; 16.3 µM (inactive) in [16]; 18.7 µM (inactive) in test [17]; 8.05 µM (inactive) in [18]. For the same compound, the GI50 was 11.7 µM (inactive) in [19] and 12.2 µM (inactive) in test [20].
Regarding `C/C(=N\N=C(/[SeH])N1CC2CCC(CC2)C1)c1ccccn1`, the GI50 is 0.0223 µM (active) in [1]; 0.356 µM (active) in [2]; 0.0291 µM (active) in [3]; 0.161 µM (active) in test [4]; 0.196 µM (active) in test [5]; 0.0147 µM in test [6]. Also, the GI50 in [7] was < 0.01 µM (active); in [8], 0.43 µM (active); in [9], 0.927 µM (active); in test [10], 0.0255 µM (active); in [11], 0.051 µM (active); in test [12] it was 0.0111 µM (active). The GI50 was 0.0244 µM (active) in [13]; 0.228 µM (active) in test [14]; 0.156 µM (active) in test [15]; 0.0673 µM (active) in [16]; 0.762 µM (active) in test [17]; 0.341 µM (active) in test [18]. Moreover, the results for the GI50 in [19] and in test [20] were 0.115 µM (active) and 0.293 µM (active), respectively.
As to `CCOC(=O)c1c(NS(=O)(=O)c2ccc(Br)cc2)sc2c1CCCC2`, the GI50 was 19.7 µM (inactive) in [1]; 18.5 µM (inactive) in test [2]; 2.67 µM (inactive) in test [3]; 3.72 µM (inactive) in test [4]; 9.4 µM (inactive) in [5]; 7.35 µM in test [6]. Further, the GI50 was 5.79 µM (inactive) in test [7]; 3.66 µM (inactive) in test [8]; 8 µM (inactive) in [9]; 4.8 µM (inactive) in test [10]; 7.29 µM (inactive) in test [11]; 5.51 µM (inactive) in [12]. Also, the GI50 was 13.6 µM (inactive) in test [13]; 6.14 µM (inactive) in [14]; 5.85 µM (inactive) in [15]; 3.92 µM (inactive) in test [16]; 10.8 µM (inactive) in test [17]; 5.9 µM (inactive) in [18]. The values for the GI50 in test [19] and in test [20] were 7.29 µM (inactive) and 10.2 µM (inactive), respectively.
In the case of `Cc1cc(=O)c2ccccc2n1CCCCCCCCCCn1c(C)cc(=O)c2ccccc21`, the GI50 in test [1] was 13.2 µM (inactive); in [2] it was 19.3 µM (inactive); in [3], 26.1 µM (inactive); in test [4], 30.2 µM (inactive); in [5], 15.1 µM (inactive); in test [6] it was 31.3 µM. Also, the GI50 in [7] is 4.68 µM (inactive); in test [8] it was 20.5 µM (inactive); in [9], 14 µM (inactive); in test [10], 34.9 µM (inactive); in [11], 0.64 µM (active); in [12] it was 12.1 µM (inactive). For the same compound, the GI50 in test [13] was 5.53 µM (inactive); in test [14], 21.4 µM (inactive); in [15], > 10 µM (inactive); in test [16], > 10 µM (inactive); in [17] it was 14.1 µM (inactive); in test [18], > 100 µM (inactive). Besides, the results for the GI50 in test [19] and in [20] were 29.5 µM (inactive) and 21.6 µM (inactive), respectively.
For `CN(C)CCCNC(=O)c1cc(NS(=O)(=O)c2ccc3c(c2)C(=O)c2ccccc2C3=O)cn1C`, the GI50 in test [1] was 21.9 µM (inactive); in test [2], 92.5 µM (inactive); in test [3] it was 28 µM (inactive); in [4] it was 29.5 µM (inactive); in [5], 23.2 µM (inactive); in test [6] it was 42.8 µM. Also, the GI50 in test [7] was 30 µM (inactive); in test [8], 22.9 µM (inactive); in [9] it was 40.3 µM (inactive); in [10], 22.3 µM (inactive); in test [11], 13.1 µM (inactive); in test [12], 21.5 µM (inactive). For the same compound, the GI50 is 13.8 µM (inactive) in test [13]; 29.1 µM (inactive) in test [14]; 40.5 µM (inactive) in test [15]; 31.3 µM (inactive) in [16]; 25.2 µM (inactive) in test [17]; 37.8 µM (inactive) in test [18]. Moreover, the GI50 in [19] is 24.8 µM (inactive); in [20] it was 67.6 µM (inactive).
As for `O=C1C=C(NCCc2ccc(O)cc2)C(=O)C=C1NCCc1ccc(O)cc1`, the GI50 in [1] is > 100 µM (inactive); in [2] it was 54.3 µM (inactive); in test [3], > 100 µM (inactive); in test [4] it was > 100 µM (inactive); in test [5], > 100 µM (inactive); in test [6] it was above 100 µM. For the same compound, the GI50 in test [7] was 38 µM (inactive); in test [8], > 100 µM (inactive); in test [9], > 100 µM (inactive); in test [11] it was > 100 µM (inactive); in test [12], 46.9 µM (inactive); in test [13] it was 35.1 µM (inactive). In addition, the GI50 is > 100 µM (inactive) in test [14]; > 100 µM (inactive) in test [15]; > 100 µM (inactive) in test [16]; > 100 µM (inactive) in test [17]; 64 µM (inactive) in test [18]; 47.1 µM (inactive) in test [19]. Further, the GI50 in test [20] is > 100 µM (inactive).
